Consider 19 compounds from patent US12638394B2, “Skin sensitization measuring reagent, method for measuring skin sensitization, and compound” (FUJIFILM Corporation, priority 2019, dated 2026).

Structures are written as SMILES.

The conditions of series [1]: class given for the evaluation substance; cited from earlier work.
A short description of series [2]: Depletion of nucleophilic reagent by evaluation substance (HPLC). Conditions: 1 mmol/L test substance solution, 25° C., 24 hours. An excerpt: (§1) One solvent with which a 1 mmol/L test substance solution can be prepared is selected according to the following order of priority: water, acetonitrile, acetone, and a 5% solution of DMSO in acetonitrile. If water, acetonitrile, or acetone is selected, a 20 mmol/L test substance solution is first prepared. A suitable amount of the test substance is weighed and completely dissolved by adding the solvent to prepare a 20 mmol/L solution. A portion of the 20 mmol/L solution is then collected and diluted 20-fold with the same solvent to prepare a 1 mmol/L test substance solution. If a 5% by mass solution of DMSO in acetonitrile is selected, a 20 mmol/L test substance solution is prepared in the same manner as above. A portion of the solution is then collected and diluted 20-fold with acetonitrile to prepare a 1 mmol/L test substance solution.
(§2) The plate is firmly sealed with a plate seal (resistant embossed seal (TORAST™ 96-well Seal E Type (TORAST is a registered trademark)), Shimadzu GLC Ltd.) and is shaken on a plate shaker (Titramax 100, Heidolph Instruments). After being spun down in a centrifuge, the reaction solutions are incubated at 25° C. in a light-shielded state for 24 hours.
(§3) After incubation for 24 hours, the plate seal is removed, and 50 μL of the reaction stop solution is added to each sample to stop the reaction.
(§4) The depletion of the nucleophilic reagent is calculated from the mean peak area of the nucleophilic reagent by the following equation: […]
(§5) Ten substances shown in the following table were used for reactivity evaluation. For primary evaluation, the upper three substances were used. […] For secondary evaluation, the lower seven substances were used. The substances selected for the secondary evaluation were substances that are difficult to distinguish between sensitizers and non-sensitizers by analysis using NAC and NAL. As above, the substances selected for the secondary evaluation were five substances that mainly react with cysteine and two substances that mainly react with lysine.
Using the three substances shown in the following table, 1 mmol/L solutions were prepared and used for testing.
A solution prepared by dissolving NAC and NAL in a phosphate buffer solution (pH 8.0) prepared in accordance with “(1-2) 100 mmol/L Phosphate Buffer Solution (pH 8.0)” of “(1) Preparation of Various Solutions” above such that the concentration of each nucleophilic reagent was 13.333 μmol/L was used as a nucleophilic reagent stock solution.
Nucleophilic reagent stock solution: NAC and NAL, 75 μL each
(§6) Test substance solution: 50 μL
The procedures described in “(4-2) Reaction” and “(4-3) Reaction Stop” of “(4) Reaction” above were performed.
In addition, the nucleophilic reagent depletion (%) was determined by the method described in “(6) Data Analysis” above.

Series [3] in a line: Reactivity of nucleophilic reagent, secondary evaluation with seven substances. Conditions: all six substances except 5-methyl-2,3-hexanedione.
From the text: as §1
The plate is firmly sealed with a plate seal (resistant embossed seal (TORAST™ 96-well Seal E Type (TORAST is a registered trademark)), Shimadzu GLC Ltd.) and is shaken on a plate shaker (Titramax 100, Heidolph Instruments). After being spun down in a centrifuge, the reaction solutions are incubated at 25° C. in a light-shielded state for 24 hours. […]
as §4

Series [4] can be described thus: Reactivity of nucleophilic reagent with evaluation substance (depletion, HPLC), primary evaluation. To be noted: 1 mmol/L test substance solution, 25° C., 24 hours. As to the method: 1) A nucleophilic reagent is dissolved in DMSO (manufactured by FUJIFILM Wako Pure Chemical Corporation) depending on its molecular weight to prepare a 2 mmol/L nucleophilic reagent solution.
2) To a 500 mL container, 149.5 mL of the buffer solution is added using a 50 mL measuring pipette, and 0.5 mL of the 2 mmol/L nucleophilic reagent solution is added and mixed by inversion so that the solution is diluted 300-fold (6.667 μmol/L). This solution is stored in a freezer at −70° C. or lower.
as §1
Test substance solutions are prepared on a 96-well plate (U96 PP-0.5 ML NATURAL, Thermo (NUNC)), mainly using a 12-channel pipette, and the reagent is added in the following amount:
Nucleophilic reagent: 150 μL
as §6, §2, §3
The HPLC measurement conditions for the nucleophilic reagents are given below. As the elution conditions, condition 1, 2 or 3 was selected depending on the nucleophilic reagent.
as §4, §5

In the case of `Cn1sccc1=O` [2-Methyl-2H-isothiazol-3-one], in series [1], the Skin sensitization result is listed as “Moderate”.

Turning to `CC(=O)N[C@@H](CCCCN)C(=O)N[C@@H](CS)C(=O)NCc1cccc2ccccc12` [Compound 2], in series [2], the “depletion for 5-methyl-2,3-hexanedione” value came out at 16.7%, the depletion for diphenylcyclopropenone amounted to 34.9% and the “depletion for nonanoyl chloride” value was determined as 65.2%. For the same compound, in series [3], the “reactivity with six secondary evaluation substances compared with NAC or NAL” value is “higher than that of NAC or NAL alone and the mean depletion”.

With `CC(=O)N[C@@H](CS)C(=O)N[C@@H](CCCCN)C(=O)N[C@@H](CC(=O)O)C(=O)NCc1cccc2ccccc12` [Compound 4], the “reactivity (nucleophilic reagent depletion) with 2-methyl-2H-isothiazol-3-one” value (“reactivity … with 2-methyl-2H-isothiazol-3-one” below) in series [4] is recorded as “about 100%”. For the same compound, in series [2], the “depletion for 5-methyl-2,3-hexanedione” value was 13.8%, the depletion for diphenylcyclopropenone is on record as 100% and the “depletion for nonanoyl chloride” value was 67.6%. Moreover, the “reactivity with six secondary evaluation substances compared with NAC or NAL” value in series [3] was “higher than that of NAC or NAL alone and the mean depletion”.

Consider `NCCCC[C@H](NC(=O)[C@H](CS)NC(=O)CO)C(=O)N[C@@H](CC(=O)O)C(=O)NCc1cccc2ccccc12` [Compound 13], for which the “reactivity … with 2-methyl-2H-isothiazol-3-one” value in series [4] is listed as “about 100%”.

Take `NCCCCC(NC(=O)[C@H](CS)NC(=O)[C@H](Cc1ccccn1)NC(=O)Cc1ccc2ccccc2c1)C(N)=O` (some centres unmarked) [Compound 16]: in series [4], the “reactivity … with 2-methyl-2H-isothiazol-3-one” value was “about 100%”.

In the case of `NCCCCC(NC(=O)[C@H](CS)NC(=O)[C@H](Cc1c[nH]cn1)NC(=O)Cc1ccc2ccccc2c1)C(N)=O` (some centres unmarked) [Compound 19], the “reactivity … with 2-methyl-2H-isothiazol-3-one” value in series [4] is “about 100%”.

Regarding `NCCCCC(NC(=O)[C@H](CS)NC(=O)[C@H](Cc1ccccn1)NC(=O)Cc1ccc2ccccc2c1)C(=O)O` (some centres unmarked) [Compound 21], the “reactivity … with 2-methyl-2H-isothiazol-3-one” value in series [4] was “about 100%”.

`NCCCCC(NC(=O)[C@H](CS)NC(=O)C(Cc1ccncc1)NC(=O)Cc1ccc2ccccc2c1)C(=O)O` (some centres unmarked) [Compound 22]: the “reactivity … with 2-methyl-2H-isothiazol-3-one” value in series [4] is recorded as “about 100%”.

For `NCCCCC(NC(=O)[C@H](CS)NC(=O)C(Cc1c[nH]cn1)NC(=O)Cc1ccc2ccccc2c1)C(=O)O` (some centres unmarked) [Compound 24], the “reactivity … with 2-methyl-2H-isothiazol-3-one” value in series [4] is reported as “about 100%”.

For `NCCCC[C@H](NC(=O)C(Cc1ccncc1)NC(=O)Cc1ccc2ccccc2c1)C(=O)NC(CS)C(=O)O` (some centres unmarked) [Compound 27], in series [4], the “reactivity … with 2-methyl-2H-isothiazol-3-one” value is “about 100%”.

On to `NCCCC[C@H](NC(=O)C(Cc1c[nH]cn1)NC(=O)Cc1ccc2ccccc2c1)C(=O)NC(CS)C(=O)O` (some centres unmarked) [Compound 29], for which, in series [4], the “reactivity … with 2-methyl-2H-isothiazol-3-one” value is reported as “about 100%”.

Regarding `NCCCCC(NC(=O)Cc1ccc2ccccc2c1)C(=O)N[C@@H](CS)C(=O)O` (some centres unmarked) [Compound 30], the “reactivity … with 2-methyl-2H-isothiazol-3-one” value in series [4] is given as “about 100%”.

For the compound `CC(C=O)Cc1ccc(C(C)C)cc1` (centres unmarked) [Cyclamen aldehyde], in series [1], the Skin sensitization entry was “Strong sensitizer”.

With `O=c1c(-c2ccccc2)c1-c1ccccc1` [Diphenylcyclopropenone], the Skin sensitization entry in series [1] is given as “Strong sensitizer”.

For `C=C(C)C(=O)OCCOC(=O)C(=C)C` [Ethylene glycol dimethacrylate], the Skin sensitization entry in series [1] is reported as “Strong sensitizer”.

On to `CC(CC=O)CCCC(C)(C)O` (centres unmarked) [Hydroxycitronellal], for which, in series [1], the Skin sensitization result is on record as “Strong sensitizer”.

As for `CCCCCCCCC(=O)Cl` [Nonanoyl chloride], the Skin sensitization entry in series [1] is “Moderate”.

With `O=C(O)c1ccccc1O` [Salicylic acid], in series [1], the Skin sensitization result is “Non-sensitizer”.

For `O=C(O)c1ccc2c(c1)C(=O)OC2=O` [Trimellitic anhydride], the Skin sensitization entry in series [1] is given as “Strong sensitizer”.
